{"source": "patent US20250353855A1", "about": "“HETEROCYCLIC AND HETEROARYL COMPOUNDS FOR TREATING HUNTINGTON'S DISEASE” (PTC THERAPEUTICS, INC., priority 2022, published 2025)", "data": [{"test_system": "Endogenous Huntingtin Protein", "experiment": "Endogenous Huntingtin Protein Assay (ELISA-based MSD electrochemiluminescence)", "type": "cell-based", "details": "MSD plates coated with MW1 (expanded polyglutamine) or MAB2166 capture antibody; lysates", "protocol": "(§1) Compounds of Formula (T) were tested using the Meso Scale Discovery (MSD) Assay provided in International Application No. PCT/US2016/066042, filed on Dec. 11, 2016 and claiming priority to U.S. Provisional Application 62/265,652 filed on Dec. 10, 2015, the entire contents of which are incorporated herein by reference.\n(§2) The Endogenous Huntingtin Protein assay used in Example 1 was developed using the ELISA-based MSD electrochemiluminescence assay platform.\n(§3) Meso Scale Discovery (MSD) 96-well or 384-well plates were coated overnight at 4° C. with MW1 (expanded polyglutamine) or MAB2166 monoclonal antibody (for capture) at a concentration of 1 μg/mL in PBS (30 μL per well). Plates were then washed three times with 300 μL wash buffer (0.05% Tween-20 in PBS) and blocked (100 μL blocking buffer; 5% BSA in PBS) for 4-5 hours at room temperature with rotational shaking and then washed three times with wash buffer.\n(§4) Samples (25 μL) were transferred to the antibody-coated MSD plate and incubated overnight at 4° C. After removal of the lysates, the plate was washed three times with wash buffer, and 25 μL of #5656S (Cell signaling; rabbit monoclonal) secondary antibody (diluted to 0.25 μg/mL in 0.05% Tween-20 in blocking buffer) was added to each well and incubated with shaking for 1 Hour at room temperature. Following incubation with the secondary antibody, the wells were rinsed with wash buffer after which 25 μL of goat anti-rabbit SULFO TAG secondary detection antibody (required aspect of the MSD system) (diluted to 0.25 μg/mL in 0.05% Tween-20 in blocking buffer) was added to each well and incubated with shaking for 1 hour at room temperature. After rinsing three times with wash buffer, 150 μL of read buffer T with surfactant (MSD) were added to each empty well, and the plate was imaged on a SI 6000 imager (MSD) according to manufacturers' instructions provided for 96- or 384-well plates.", "units": {"IC50": "nM"}, "values": [{"smiles": "CSc1nc2cc(O)c(-c3cc4c(nn3)N([C@H]3CC(C)(C)NC(C)(C)[C@H]3F)CC4)cc2s1", "note": "[Cpd 98, 6-{7-[(3S,4S)-3-fluoro-2,2,6,6-tetramethylpiperidin-4-yl]-6,7-dihydro-5H-pyrrolo[2,3-c]pyridazin-3-yl}-2-(methylsulfanyl)-1,3-benzothiazol-5-ol]", "IC50": "< 100"}, {"smiles": "Cn1ncc2cc(O)c(-c3cc4c(nn3)N([C@H]3CC(C)(C)NC(C)(C)[C@H]3F)CC4)cc21", "note": "[Cpd 62, 6-{7-[(3S,4S)-3-fluoro-2,2,6,6-tetramethylpiperidin-4-yl]-6,7-dihydro-5H-pyrrolo[2,3-c]pyridazin-3-yl}-1-methyl-1H-indazol-5-ol]", "IC50": "< 100"}, {"smiles": "Cc1ncc2cc(-c3cc4ccn([C@H]5CC(C)(C)NC(C)(C)[C@H]5F)c4nn3)c(O)cc2n1", "note": "[Cpd 15, 6-{7-[(3S,4S)-3-fluoro-2,2,6,6-tetramethylpiperidin-4-yl]-7H-pyrrolo[2,3-c]pyridazin-3-yl}-2-methylquinazolin-7-ol]", "IC50": "< 100"}]}, {"test_system": "Endogenous Huntingtin Protein", "experiment": "Endogenous Huntingtin Protein Assay (ELISA-based MSD electrochemiluminescence)", "type": "cell-based", "details": "MSD plates coated with MW1 (expanded polyglutamine) or MAB2166 capture antibody; lysates; read-out: IC50", "protocol": "as §1, §2, §3, §4", "units": {"IC50": "nM"}, "values": [{"smiles": "Cc1nc2cc(-c3cc4ccn([C@H]5CC(C)(C)NC(C)(C)[C@H]5F)c4nn3)c(O)cc2o1", "note": "[Cpd 6, 5-{7-[(3S,4S)-3-fluoro-2,2,6,6-tetramethylpiperidin-4-yl]-7H-pyrrolo[2,3-c]pyridazin-3-yl}-2-methyl-1,3-benzoxazol-6-ol]", "IC50": "< 100"}, {"smiles": "Cc1nc2cc(O)c(-c3cc4c(nn3)N([C@@H]3CC5(CCC5)NC[C@@H]3F)CC4)cc2s1", "note": "(single isomer, unassigned) [Cpd 61, 6-{7-[(7S,8R)-7-fluoro-5-azaspiro[3.5]nonan-8-yl]-6,7-dihydro-5H-pyrrolo[2,3-c]pyridazin-3-yl}-2-methyl-1,3-benzothiazol-5-ol or 6-{7-[(7R,8S)-7-fluoro-5-azaspiro[3.5]nonan-8-yl]-6,7-dihydro-5H-pyrrolo[2,3-c]pyridazin-3-yl}-2-methyl-1,3-benzothiazol-5-ol]", "IC50": "< 100"}, {"smiles": "Oc1cc2nccnc2cc1-c1cc2c(nn1)N([C@H]1CCNC3(CC3)C1)CC2", "note": "[Cpd 49, 7-{7-[(7S)-4-azaspiro[2.5]octan-7-yl]-6,7-dihydro-5H-pyrrolo[2,3-c]pyridazin-3-yl}quinoxalin-6-ol]", "IC50": "< 100"}, {"smiles": "Cc1nc2cc(-c3cc4c(nn3)N([C@H]3CC(C)(C)NC(C)(C)[C@H]3F)CC4)c(O)cc2[nH]1", "note": "[Cpd 46, 5-{7-[(3S,4S)-3-fluoro-2,2,6,6-tetramethylpiperidin-4-yl]-6,7-dihydro-5H-pyrrolo[2,3-c]pyridazin-3-yl}-2-methyl-1H-benzimidazol-6-ol]", "IC50": "< 100"}, {"smiles": "CC1(C)C[C@H](n2ccc3cc(-c4cc5cccnc5cc4O)nnc32)[C@H](F)C(C)(C)N1", "note": "[Cpd 16, 6-{7-[(3S,4S)-3-fluoro-2,2,6,6-tetramethylpiperidin-4-yl]-7H-pyrrolo[2,3-c]pyridazin-3-yl}quinolin-7-ol]", "IC50": "< 100"}, {"smiles": "CC1(C)C[C@H](N2CCc3cc(-c4cc5ccc(=O)oc5cc4O)nnc32)[C@H](F)C(C)(C)N1", "note": "[Cpd 67, 6-{7-[(3S,4S)-3-fluoro-2,2,6,6-tetramethylpiperidin-4-yl]-6,7-dihydro-5H-pyrrolo[2,3-c]pyridazin-3-yl}-7-hydroxy-2H-1-benzopyran-2-one]", "IC50": "< 100"}, {"smiles": "Cc1nc2cc(O)c(-c3cc4nnn(C5CC(C)(C)NC(C)(C)C5)c4nn3)cc2s1", "note": "[Cpd 27, 2-methyl-6-[3-(2,2,6,6-tetramethylpiperidin-4-yl)-3H-[1,2,3]triazolo[4,5-c]pyridazin-6-yl]-1,3-benzothiazol-5-ol]", "IC50": "< 100"}, {"smiles": "Cc1ccc2cc(-c3cc4c(nn3)N([C@H]3CC(C)(C)NC(C)(C)[C@H]3F)CC4)c(O)cc2n1", "note": "[Cpd 76, 6-{7-[(3S,4S)-3-fluoro-2,2,6,6-tetramethylpiperidin-4-yl]-6,7-dihydro-5H-pyrrolo[2,3-c]pyridazin-3-yl}-2-methylquinolin-7-ol]", "IC50": "< 100"}, {"smiles": "CC1(C)C[C@H](N2CCc3cc(-c4cc5nn[nH]c5cc4O)nnc32)[C@H](F)C(C)(C)N1", "note": "[Cpd 47, 5-{7-[(3S,4S)-3-fluoro-2,2,6,6-tetramethylpiperidin-4-yl]-6,7-dihydro-5H-pyrrolo[2,3-c]pyridazin-3-yl}-1H-benzotriazol-6-ol]", "IC50": "< 100"}, {"smiles": "Cc1cnc2cc(O)c(-c3cc4ccn([C@H]5CC(C)(C)NC(C)(C)[C@H]5F)c4nn3)cc2c1", "note": "[Cpd 35, 6-{7-[(3S,4S)-3-fluoro-2,2,6,6-tetramethylpiperidin-4-yl]-7H-pyrrolo[2,3-c]pyridazin-3-yl}-3-methylquinolin-7-ol]", "IC50": "< 100"}, {"smiles": "Cc1nc2cc(O)c(-c3cc4c(nn3)N([C@H]3CC(C)(C)NC(C)(C)[C@H]3F)CC4)cc2nc1C", "note": "[Cpd 51, 7-{7-[(3S,4S)-3-fluoro-2,2,6,6-tetramethylpiperidin-4-yl]-6,7-dihydro-5H-pyrrolo[2,3-c]pyridazin-3-yl}-2,3-dimethylquinoxalin-6-ol]", "IC50": "< 100"}, {"smiles": "Cc1nc2cc(O)c(-c3cc4c(nn3)N([C@@H]3CC(C)(C)NC5(CC5)C3)CC4)cc2o1", "note": "[Cpd 95, 6-{7-[(7R)-5,5-dimethyl-4-azaspiro[2.5]octan-7-yl]-6,7-dihydro-5H-pyrrolo[2,3-c]pyridazin-3-yl}-2-methyl-1,3-benzoxazol-5-ol]", "IC50": "< 100"}, {"smiles": "Cc1nc2cc(-c3cc4ccn([C@@H]5CCNC6(CCC6)[C@@H]5F)c4nn3)c(O)cc2s1", "note": "(single isomer, unassigned) [Cpd 34, 5-{7-[(8R,9R)-9-fluoro-5-azaspiro[3.5]nonan-8-yl]-7H-pyrrolo[2,3-c]pyridazin-3-yl}-2-methyl-1,3-benzothiazol-6-ol or 5-{7-[(8S,9S)-9-fluoro-5-azaspiro[3.5]nonan-8-yl]-7H-pyrrolo[2,3-c]pyridazin-3-yl}-2-methyl-1,3-benzothiazol-6-ol]", "IC50": "100 to 500"}, {"smiles": "CC1(C)C[C@H](n2ccc3cc(-c4cc5ncc(F)cc5cc4O)nnc32)[C@H](F)C(C)(C)N1", "note": "[Cpd 40, 3-fluoro-7-{7-[(3S,4S)-3-fluoro-2,2,6,6-tetramethylpiperidin-4-yl]-7H-pyrrolo[2,3-c]pyridazin-3-yl}quinolin-6-ol]", "IC50": "< 100"}, {"smiles": "Cc1nc2cc(O)c(-c3cc4ncn([C@H]5CC(C)(C)NC6(CC6)C5)c4nn3)cc2s1", "note": "[Cpd 11, 6-{7-[(7S)-5,5-dimethyl-4-azaspiro[2.5]octan-7-yl]-7H-imidazo[4,5-c]pyridazin-3-yl}-2-methyl-1,3-benzothiazol-5-ol]", "IC50": "< 100"}, {"smiles": "Cc1nc2cc(O)c(-c3cc4ccn([C@H]5C[C@@H]6CC[C@@H](N6)[C@H]5F)c4nn3)cc2s1", "note": "(single isomer, unassigned) [Cpd 10, 6-{7-[(1R,2R,3S,5S)-2-fluoro-8-azabicyclo[3.2.1]octan-3-yl]-7H-pyrrolo[2,3-c]pyridazin-3-yl}-2-methyl-1,3-benzothiazol-5-ol or 6-{7-[(1S,2S,3R,5R)-2-fluoro-8-azabicyclo[3.2.1]octan-3-yl]-7H-pyrrolo[2,3-c]pyridazin-3-yl}-2-methyl-1,3-benzothiazol-5-ol]", "IC50": "< 100"}, {"smiles": "Cc1cnc2cc(-c3cc4ccn([C@H]5CC(C)(C)NC(C)(C)[C@H]5F)c4nn3)c(O)cc2n1", "note": "[Cpd 5, 7-{7-[(3S,4S)-3-fluoro-2,2,6,6-tetramethylpiperidin-4-yl]-7H-pyrrolo[2,3-c]pyridazin-3-yl}-3-methylquinoxalin-6-ol]", "IC50": "< 100"}, {"smiles": "CC1(C)C[C@H](n2ccc3cc(-c4cc5ccncc5cc4O)nnc32)[C@H](F)C(C)(C)N1", "note": "[Cpd 29, 6-{7-[(3S,4S)-3-fluoro-2,2,6,6-tetramethylpiperidin-4-yl]-7H-pyrrolo[2,3-c]pyridazin-3-yl}isoquinolin-7-ol]", "IC50": "< 100"}]}]}
